pIC50: −log10 of the molar value.

The subject of experiment [1] is IL-8 (Interleukin-8) production. The experiment can be described thus: Glucocorticoid inhibition of IL-1 induced IL-8 production in SW1353 human chondrosarcoma cells. The format is cell-based. Particulars: 20 ng/ml IL-1 beta, 24 hours after IL-1 addition, ELISA, read-out: IC50, inhibition of IL-8 expression. On the procedure: (§1) This assay, the glucocorticoid inhibition of IL-1 (Interleukin-1) induced MMP-1 (Matrix Metalloproteinase-1) and IL-8 (Interleukin-8) production in human chondrosarcoma cells, is conducted as follows: SW1353 human chondrosarcoma cells (obtained from ATCC) from passage 12 through passage 19 are used in a 96 well format assay. Cells are plated at confluence into 96 well plates in DMEM (Dulbecco's Modified Eagle Medium) with 10% fetal bovine serum and incubated at 37° C., 5% CO2. After 24 hours, serum containing media is removed and replaced with 200 ul/well DMEM containing 1 mg/L insulin, 2 g/L lactalbumin hydrosylate, and 0.5 mg/L ascorbic acid and returned to incubation at 37° C., 5% CO2. […] IL-8 production is assessed using the Quantikine human IL-8 ELISA kit from R&D Systems (D8050) on samples diluted 60-fold in RD5P Calibrator Diluent, following the manufacturer's protocol. The percent of the average IL-1 control is determined for the average of each of the triplicate samples following subtraction of the average signal from untreated cells. IC50's are determined from log linear plots of the percent of control versus the concentration of inhibitor. […] MMP-1 production is assessed via the Bio-Trak MMP-1 ELISA kit from Amersham (RPN2610) on 100 ul of neat sample following the manufacturer's protocol. […]
(ELISA stands for enzyme-linked immunosorbent assay.)

Experiment [2] has as its system MMP-1 (Matrix Metalloproteinase-1) production. The experiment can be described thus: Glucocorticoid inhibition of IL-1 induced MMP-1 production in SW1353 human chondrosarcoma cells. It is filed as cell-based. Particulars: 20 ng/ml IL-1 beta, 72 hours after IL-1 addition, ELISA, read-out: IC50, inhibition of MMP1 expression. On the procedure:
as §1

For the compound `C[C@@H]1C[C@H]2[C@@H]3CCC4=CC(=O)C=C[C@]4(C)[C@@]3(F)[C@@H](O)C[C@]2(C)[C@@]1(O)C(=O)CO` [Dexamethasone], the negative logarithm of the IC50 (pIC50) in experiment [1] and in experiment [2] was 8.30 each time.

The values above are taken from patent publication US20070129410A1, “Octahydrophenanthrene hydrazinde derivatives useful as glucocorticoid receptor modulators” (Pfizer Inc., priority 2003, published 2007).
